Broadly, the IC50 is the concentration at which inhibition is half-maximal.

This is an account of results in patent US9382249B2, “Antitumor aza-benzo [f] azulen derivative, method for preparing same, and use thereof” (TIANYI BIOSCIENCE CO. LTD., priority 2012, dated 2016).

The structures appear in SMILES notation.

Series [1] relates to human non-small cell lung cancer cell line A549. Put plainly: MTT growth inhibition assay, A549. In kind it is cell-based. The conditions noted are these: 96 hours incubation. As to the method: (§1) Method: Cells in the logarithmic growth phase (human gastric cancer cell lines SGC-7901, MGC-803, human oral epidermoid carcinoma cell line KB, human non-small cell lung cancer cell line A549, human breast ductal cancer cell line BT-549, human prostate cancer cell line PC-3, human colon cancer cell line HT-29, human brain astrocytic glioblastoma cell line U-87MG and a human hepatoma cell line SMMC-7721) at a concentrations of 1.5×10^4 were inoculated in 96 well plates. The original medium was removed after cell culture for 24 hours until adherence. The tests included blank control group and drug treatment group. For the control group, the medium was replaced with 1640 medium containing 10% fetal bovine serum; for the drug treatment group, the medium was replaced with medium containing compounds I-1, I-2 and I-3 to be tested at concentrations of 100 μM, 50 μM, 10 μM, 1 μM, 0.1 μM, 0.01 μM, 0.001 μM, 0.0001 μM and 0.00001 μM. After incubation for 96 hours add MTT at a concentration of 5 mg/mL, and resume incubation in a CO2 incubator for 4 hours. And then along the upper part of the culture solution, remove 100 μL, of supernatant, add 100 μL of DMSO, allow to place at a dark for 10 minutes. With a microplate reader (a product from Sunrise company), absorbance was measured (at wavelength 570 nm), and cell survival situation is calculated based on the absorbance. Six duplicated wells were set for each treatment. Cell viability (%)=ΔODdrug treatment/ΔODblank control×100.
Background: Formazan colour is commonly taken as a measure of viable cells.

Series [2] deals with human hepatoma cell line SMMC-7721. The series is described as follows: MTT growth inhibition assay, SMMC-7721. In kind it is cell-based. The conditions noted are these: SMMC-7721, MTT, 96 hours incubation. As to the method: as §1
In series [3] the test system is human prostate cancer cell line PC-3. Put plainly: MTT growth inhibition assay, PC-3. In kind it is cell-based. The conditions noted are these: PC-3, MTT, 96 hours incubation. As to the method:
as §1

In series [4] the test system is human gastric cancer cell line SGC-7901. Put plainly: MTT growth inhibition assay, SGC-7901. In kind it is cell-based. The settings on record: SGC-7901, MTT, 96 hours incubation. How it is done: as §1
Series [5] deals with human colon cancer cell line HT-29. Put plainly: MTT growth inhibition assay, HT-29. In kind it is cell-based. The settings on record: HT-29, MTT, 96 hours incubation. How it is done: as §1
The subject of series [6] is human oral epidermoid carcinoma cell line KB. Put plainly: MTT growth inhibition assay, KB. The conditions noted are these: 96 hours incubation. In kind it is cell-based. How it is done: as §1
Series [7] concerns human brain astrocytic glioblastoma cell line U-87MG. The series is described as follows: MTT growth inhibition assay, U-87MG. In kind it is cell-based. The conditions noted are these: U-89MG [sic], 96 hours incubation. As to the method: as §1
Series [8] deals with a variety of human tumor cell lines. Put plainly: Growth inhibition on various strains of human tumor cell with MTT assay (overall statements). In kind it is cell-based. The settings on record: in words. As to the method:
as §1, with “Six duplicated wells were set for each treatment. Cell viability (%)=ΔODdrug treatment/ΔODblank control×100.” left out

A short description of series [9]: Body weight change / toxicity in SGC-7901 tumor-bearing nude mice. How it is done:
(§2) Method: 1. Establishing model of human gastric cancer SGC-7901 tumor transplanted in nude mice, and animal groups: SGC_7901 cell lines were cultured with medium RPMI1640 containing 10% fetal bovine serum. SGC-7901 cells at logarithmic growth phase were trypsinized into single cell suspension. Final concentration of the cell was adjusted with medium RPMI1640 into 5×10^7/mL. 0.2 mL of cell suspension was injected subcutaneously into right anterior axillary of each nude mouse. 14 days after inoculation, when the tumor size grew to about 130 to 180 mm^3, the nude mice were randomized into five groups according to tumor size and body weight of mice, with 8-12 mice in each group. 5 groups were: a blank control group (purified water containing 0.5% of hydroxypropyl methylcellulose and 0.1% Tween 80, administered through gavage, each at morning and evening, for 10 days), 12.5, 25 and 50 mg/kg of I-1 treatment group (administered through gavage, each at morning and evening, for 10 days), and 100 mg/kg cyclophosphamide (CYP) group (by intraperitoneal injection, once every 5 days, for 2 weeks), respectively.
(§3) 2. […] The tumor size was calculated following the formula V=Dd^2/2, and the tumor growth curve was plotted. […]

The subject of series [10] is human gastric cancer cell line MGC-803. The series is described as follows: MTT growth inhibition assay, MGC-803. In kind it is cell-based. The settings on record: MGC-803, MTT, 96 hours incubation. How it is done: as §1
Series [11] concerns human gastric cancer SGC-7901 tumor transplanted in nude mice. Put plainly: Growth inhibition of human gastric cancer SGC-7901 tumor transplanted in nude mice. In kind it is in vivo. The settings on record: SGC-7901 xenograft. As to the method: as §2
(§4) 2. Growth situation of subcutaneous human gastric cancer tumor transplanted in nude mice and inhibitory effect was observed: from the dosing day, body weight of nude mouse as well as the maximum diameter (D) and minimum diameter (d) of tumor were observed every two days. The tumor size was calculated following the formula V=Dd^2/2, and the tumor growth curve was plotted. At the end of the experiment, the tumor was dissected in whole and picture was taken. Growth rate of nude mouse body weight before and after treatment=[(body weight after treatment−body weight before treatment)/body weight before treatment]*100%; tumor inhibition rate=[1−(tumor size after treatment in the experiment group−tumor size before treatment in the experiment group)/(tumor size after treatment in the control group−tumor size before treatment in the control group)]*100%
(In general: In xenograft studies the graft and the host belong to different species.)

In series [12] the test system is human breast ductal cancer cell line BT-549. Put plainly: MTT growth inhibition assay, BT-549. In kind it is cell-based. The conditions noted are these: BT-549, MTT, 96 hours incubation. As to the method: as §1
Series [13] can be described thus: Body weight change / toxicity in MGC-803 tumor-bearing nude mice. How it is done:
(§5) Method: 1. Establishing model of human gastric cancer MGC-803 tumor transplanted in nude mice, and animal groups: MGC-803 cell lines were cultured with medium RPMI1640 containing 10% fetal bovine serum. MGC-803 cells at logarithmic growth phase were trypsinized into single cell suspension. Final concentration of the cell was adjusted with medium RPMI1640 into 5×10^7/mL. 0.2 mL of cell suspension was injected subcutaneously into right anterior axillary of each nude mouse. 8 days after inoculation, when the tumor size grew to about 110 mm^3, the mice were randomized into five groups according to tumor size and body weight of mice, with 10 mice in each group. 5 groups were: a blank control group (purified water containing 0.5% of hydroxypropyl methylcellulose and 0.1% Tween 80, administered through gavage, once per day, for […]), 4, 6 and 9 mg/kg of I-2 treatment group (administered through gavage, once per day, for 17 days), and 100 mg/kg cyclophosphamide group (by intraperitoneal injection, once every 7 days, for 3 weeks), respectively.
as §3

Series [14] concerns human gastric cancer MGC-803 tumor transplanted in nude mice. The series is described as follows: Growth inhibition of human gastric cancer MGC-803 tumor transplanted in nude mice. In kind it is in vivo. The settings on record: MGC-803 xenograft. As to the method: as §5
as §4, with “3-4” for “two”

Consider `Cc1cc2c(cn1)C(c1ccccc1Cl)=Nc1c(n[nH]c1C)N2` [Compound I-1], for which the IC50 was determined as 0.69 ± 0.24 µM in series [1]; 0.14 ± 0.03 µM in [2]; 1.9 ± 0.39 µM in series [3]; 0.29 ± 0.13 µM in [4]; 0.16 ± 0.04 µM in [5]; 1.35 ± 0.05 µM in series [6]. Besides, the IC50 turned out to be 0.4 ± 0.02 µM in series [7], 0.98 ± 0.04 µM in series [10] and 0.39 ± 0.23 µM in series [12]. In [8], the “Inhibitory effect on the growth of a variety of human tumor cell lines” value is “very significant inhibition”. The Toxic side effect result in series [9] (12.5, 25 and 50 mg/kg, gavage, twice daily, 10 days) is reported as “negligible toxic side effect”. In series [9] (only for the highest dose of 50 mg/kg, FIG. 3), the “Effect on weight gain of nude mouse” value is given as “mild effect on weight gain”. The Tumor inhibition rate in series [11] (12.5 mg/kg, gavage, each at morning and evening, for 10 days) is 67.5%; in [11] (25 mg/kg, gavage, each at morning and evening, for 10 days), 83%; in [11] (50 mg/kg, gavage, each at morning and evening, for 10 days), 88.6%.

In the case of `CCc1cc2c(cn1)C(c1ccccc1Cl)=Nc1c(n[nH]c1C)N2` [Compound I-2, 9-(2-chlorophenyl)-6-ethyl-1-methyl-2,4-dihydrogen-2,3,4,7,10-pentaaza-benzo [f] azulene], the IC50 was 0.25 ± 0.14 µM in series [1]; 0.04 ± 0.01 µM in [2]; 0.85 ± 0.1 µM in [3]; 0.09 ± 0.01 µM in series [4]; 0.08 ± 0.01 µM in [5]; 0.62 ± 0.01 µM in [6]. For the same compound, the figures for the half-maximal inhibitory concentration (IC50) in series [7], in series [10] and in series [12] were 0.06 ± 0.04 µM, 0.7 ± 0.02 µM and 0.07 ± 0.03 µM, respectively. For the same compound, the “Inhibitory effect on the growth of a variety of human tumor cell lines” value in [8] was “very significant inhibition”. Moreover, the Toxic side effect result in series [13] (4, 6 and 9 mg/kg, gavage, once per day, 17 days) is listed as “negligible toxic side effect”. In series [13] (only for the highest dose of 9 mg/kg on treatment day 3-6, FIG. 6), the “Effect on weight gain of nude mouse” value is recorded as “mild effect on weight gain”. Besides, the Tumor inhibition rate worked out at 72.5% in series [14] (4 mg/kg, gavage, once per day, for 17 days); 97.3% in [14] (6 mg/kg, gavage, once per day, for 17 days); 100% in series [14] (9 mg/kg, gavage, once per day, for 17 days).

Turning to `Cc1cc2c(cn1)C(c1ccccc1F)=Nc1c(n[nH]c1C)N2` [Compound I-3], the IC50 worked out at 3.25 ± 0.25 µM in [1]; 0.82 ± 0.19 µM in series [2]; 11.3 ± 1.3 µM in series [3]; 1.63 ± 0.13 µM in series [4]; 0.74 ± 0.08 µM in series [5]; 7.27 ± 0.59 µM in series [6]. In addition, the IC50 in [7] worked out at 1.94 ± 0.24 µM; in series [10], 4.86 ± 0.39 µM; in series [12] it was 1.95 ± 0.23 µM.

Turning to `O=P1(N(CCCl)CCCl)NCCCO1` (centres unmarked) [CYP, cyclophosphamide, reference compound], the Tumor inhibition rate in series [11] (100 mg/kg, intraperitoneal injection, once every 5 days, for 2 weeks) was 39.5%; in series [14] (100 mg/kg, intraperitoneal injection, once every 7 days, for 3 weeks), 62.4%.
